# Results reported in patent US8679736B2, “Removal of adenine during a pathogen reduction process in whole blood or red blood cells by dilution” (Terumo BCT Biotechnologies, LLC, priority 2002, dated 2014).
# Tested on: red blood cells
# Conditions: riboflavin and visible light, FIG. 4
# Source text: Red blood cells were suspended in AS3 during a pathogen reduction procedure using riboflavin and visible light. […] AS3 contains sodium chloride, dextrose, adenine, sodium phosphate, sodium citrate and citric acid.
smiles,measurement,value
"Cc1cc2nc3c(=O)[nH]c(=O)nc-3n(CC(O)C(O)C(O)CO)c2cc1C (stereo not shown) [riboflavin, 7,8-dimethyl-10-ribityl isoalloxazine]",% hemolysis of red blood cells,less than 2%
